Data published in patent publication US20220062291A1, “COMPOSITIONS AND METHODS OF TREATING CANCERS BY ADMINISTERING A PHENOTHIAZINE-RELATED DRUG THAT ACTIVATES PROTEIN PHOSPHATASE 2A (PP2A) WITH REDUCED INHIBITORY ACTIVITY TARGETED TO THE DOPAMINE D2 RECEPTOR AND ACCOMPANYING TOXICITY” (DANA-FARBER CANCER INSTITUTE, INC., priority 2018, published 2022).

Columns and labels:
[1] = system: KOPT-K1 cells; experiment: Survival of NSG mice xenotransplanted with KOPT-K1 cells; type: in vivo, NSG (NOD/Scid/IL2Rγnull) mice; details: 2.5 mg/kg/day, oral, from day 10
Excerpt: At day one, 1×10^6 KOPT-K1 cells were intravenously injected into each mouse via its tail veins.

[2] = system: T-ALL cells isolated from Tg(rag2:Myc; rag2:EGFP) zebrafish; experiment: Zebrafish embryos transplanted with T-ALL cells, GFP-positive leukemic area; type: in vivo
Excerpt: (n=10) N.S.; not significant, **P<0.01 and ****P<0.0001 by two-tailed Welch's t-test.

[3] = Movement disorder in free-swimming zebrafish embryos; type: in vivo; details: five days
Excerpt: Note that the embryos were not anesthetized. Scale bar: 0.1 mm.

[4] = system: KOPT-K1 cells with PP2A subunit inactivation; experiment: Drug sensitivity of KOPT-K1 sublines with CRISPR-Cas9 PP2A subunit knockout; type: cell-based, human; details: 72 hours
Experimental: Two gRNAs with different target sequences were designed for each subunit (#1 and #2). Control gRNAs target luciferase gene. […] Data are presented as means±s.d. (n=3-5, biological replicates). ***P<0.001 by Student's t-test (FIG. 3A).
SMAP sensitivity in KOPT-K1 cells was measured after PP2A subunit inactivation. Only each subunit of PP2A was knocked out by CRISPR-Cas9 with unique gRNAs. […] Two gRNAs with different target sequences were designed for each subunit (#1 and #2). Control gRNAs target luciferase gene. Data are presented as means±s.d. (n=3-5, biological replicates). ***P<0.001 by Student's t-test (FIG. 3B).
To identify the subunits of PP2A that are essential for the antitumor activity of iPAP1, CRISPR-Cas9 was used to establish a series of sublines of KOPT-K1 T-ALL cells, each lacking one of the 19 specific PP2A subunits (FIG.1A-FIG. 2), and to examine their sensitivity to iPAP1-induced growth inhibition.
With this panel of PP2A subunit knockout cells in hand, we analyzed the PP2A subunits required for growth suppression by SMAPs, another class of allosteric activators of PP2A (Gutierrez et al., J. Clin. Invest. 124:644-655 (2014); Sangodkar et al., J. Clin. Invest. 127:2081-2090 (2017)). […] Both the PPP2R5E and PPP2R2A regulatory subunits of PP2A were among the most highly expressed in a series of 16 different T-ALL cell lines (FIG. 5A). Thus, the assembly of structurally different heterotrimeric PP2A complexes induced with either iPAP1 or SMAP cannot be attributed to imbalances in cellular expression levels of individual PP2A subunits, but likely stems from differences in the allosteric alterations of the A subunit protein resulting from the binding of these two classes of small molecules, which have different chemical structures.

[5] = target: T1, PP2A subunits in KOPT-K1 cell lysates (Homo sapiens, UniProt P30153+P67775+Q16537); experiment: Cellular thermal shift assay (CETSA), PP2A subunits; type: binding; details: PPZ at 10 μM, one hour
T1 construct: are endogenously expressed by KOPTK1 cells; endogenous in cells; host or cells: KOPT-K1 T-ALL cells / lysates
Excerpt: The cell lysates were then ultra-centrifuged to precipitate the aggregated pool of the protein, followed by quantification of the remaining soluble protein fraction by immunoblotting with antibodies specific to each of the PP2A subunits.
A similar experiment was set up to examine target engagement specificity of iPAP1 to PP2A subunits in KOPT-K1 cells (FIG. 18G-FIG. 18L). […] A western blot of the KOPT-K1 cell lysates is illustrated in FIG. 19B.

[6] = system: MYBL2 Ser241 in KOPT-K1 cells; experiment: Phosphoproteomics analysis; type: cell-based, human; details: 3 hours
Experimental: To evaluate phosphopeptides in KOPT-K1 cells by phosphoproteomics analysis, cells were treated with PPZ at 10 μM or iPAP1 at 1 μM for 3 hours.

[7] = system: KOPT-K1 cells; experiment: Cell cycle status by PI flow cytometry; type: cell-based, human; details: 24 hours
Experimental: Relative DNA content of cells in each of the samples was determined by measuring PI (propidium iodide) staining using flow cytometry. The results are illustrated in FIG. 31A-FIG. 31B.
Relative DNA content of cells in each of the samples was determined as described above.

[8] = system: KOPT-K1 cells; experiment: Microtubule and chromatin staining of cytospins; type: cell-based, human; details: 24 hours
[9] = target: T2, PP2A (purified PPP2R1A, PPP2CA and PPP2R5E subunits) (Homo sapiens, UniProt P30153+P67775+Q16537); experiment: PP2A Immunoprecipitation Phosphatase Assay with purified subunits; type: biochemical
T2 construct: made in house; host or cells: Hi5 insect cells (baculovirus, pAC8 vectors; virus produced in Sf9)
Experimental: The data is presented as mean±s.d. (n=3, biological replicates). *P<0.05 by student's t-test.
Phosphatase activity of PP2A was measured using the PP2A Immunoprecipitation Phosphatase Assay Kit (Merck Millipore®) (FIG. 21A-FIG. 21B). […] The proteins were subsequently incubated with protein A agarose slurry and 4 μg of anti-PPP2CA antibody (Merck Millipore®, #05-421, clone 1D6) at 4° C. with constant rocking for one hour. Agarose-bound immune complexes were collected, then washed with 700 μl TBS (3 times) and 500 μl Ser/Thr buffer (final wash), before resuspending them in 20 μl Ser/Thr buffer. A phosphopeptide (amino acid sequence: K-R-pT-I-R-R) was added as a substrate for PPP2CA, and samples were incubated at 30° C. in a shaking incubator for 10 minutes. Supernatants (25 μl) were then transferred onto 96-well plate, and released phosphate was measured by adding 100 μl malachite green phosphate detection solution. Absorbance was read by SpectraMax® M5 Multi-Mode Microplate Reader (Molecular Devices LLC) at 650 nm. Phosphate concentrations were calculated from a standard curve generated from serial dilutions of standard phosphate solution (0-2,000 pmol).

[10] = system: α and β tubulins in KOPT-K1 cell lysates; experiment: Cellular thermal shift assay (CETSA), tubulins; type: binding, human
Experimental: Data are presented as means±s.d. (n=3, biological replicates). The quantitation of levels α and β tubulins detected by specific antibodies was determined using western blotting (FIG. 19E). Alpha (α) and tubulin levels were quantified during CETSA by Image J software of KOPT-K1 cell lysates treated or untreated with iPAP1 at various temperatures for 3 minutes. […] The CETSA curves for KOPT-K1 cell lysates with and without the addition of iPAP1 after incubation for 3 minutes are shown in FIG. 19F and FIG. 19G. […] Data are presented as means±s.d. (n=3, biological replicates). The quantitation of levels α and β tubulins detected by specific antibodies using western blotting (FIG. 19H). α and β tubulin levels were quantified during CETSA by Image J software of KOPT-K1 cell lysates treated or untreated with iPAP1 at various temperature for 3 minutes.

T2 sequence (P30153 whole entry): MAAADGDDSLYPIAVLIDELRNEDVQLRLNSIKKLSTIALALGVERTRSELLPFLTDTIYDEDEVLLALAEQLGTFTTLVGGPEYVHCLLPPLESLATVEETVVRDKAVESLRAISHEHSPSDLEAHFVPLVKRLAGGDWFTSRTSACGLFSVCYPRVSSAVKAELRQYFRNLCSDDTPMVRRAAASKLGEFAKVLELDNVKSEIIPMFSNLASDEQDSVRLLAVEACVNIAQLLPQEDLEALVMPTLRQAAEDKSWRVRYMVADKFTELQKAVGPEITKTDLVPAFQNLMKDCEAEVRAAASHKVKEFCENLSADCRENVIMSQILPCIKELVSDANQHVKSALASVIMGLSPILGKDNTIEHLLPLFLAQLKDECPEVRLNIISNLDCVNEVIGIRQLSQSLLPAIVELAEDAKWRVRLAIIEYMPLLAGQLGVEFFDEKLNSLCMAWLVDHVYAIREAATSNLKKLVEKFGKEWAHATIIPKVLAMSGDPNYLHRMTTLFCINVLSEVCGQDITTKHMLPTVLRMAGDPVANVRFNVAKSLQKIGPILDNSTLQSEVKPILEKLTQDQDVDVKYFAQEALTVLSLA
T2 sequence (P67775 whole entry): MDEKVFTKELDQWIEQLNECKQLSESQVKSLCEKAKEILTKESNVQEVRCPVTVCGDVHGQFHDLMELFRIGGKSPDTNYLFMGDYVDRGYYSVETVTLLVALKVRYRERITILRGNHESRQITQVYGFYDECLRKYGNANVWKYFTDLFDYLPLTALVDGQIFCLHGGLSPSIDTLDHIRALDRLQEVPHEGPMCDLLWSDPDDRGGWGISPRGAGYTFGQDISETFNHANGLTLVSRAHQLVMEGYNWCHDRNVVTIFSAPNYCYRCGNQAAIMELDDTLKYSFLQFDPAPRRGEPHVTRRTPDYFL
T2 sequence (Q16537 whole entry): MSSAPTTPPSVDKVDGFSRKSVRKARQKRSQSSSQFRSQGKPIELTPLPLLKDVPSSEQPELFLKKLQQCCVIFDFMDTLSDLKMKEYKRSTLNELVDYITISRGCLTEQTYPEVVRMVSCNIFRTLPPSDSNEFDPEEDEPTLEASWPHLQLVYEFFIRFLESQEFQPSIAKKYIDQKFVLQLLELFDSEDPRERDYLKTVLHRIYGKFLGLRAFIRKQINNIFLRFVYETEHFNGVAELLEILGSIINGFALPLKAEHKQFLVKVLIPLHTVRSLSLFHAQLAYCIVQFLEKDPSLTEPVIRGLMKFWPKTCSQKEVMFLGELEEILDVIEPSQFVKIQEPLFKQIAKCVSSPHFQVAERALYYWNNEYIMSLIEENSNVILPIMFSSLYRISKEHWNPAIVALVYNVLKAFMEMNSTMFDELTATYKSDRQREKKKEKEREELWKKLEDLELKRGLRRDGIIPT
T1 sequence (P30153 whole entry): as the sequence (P30153 whole entry) above
T1 sequence (P67775 whole entry): as the sequence (P67775 whole entry) above
T1 sequence (Q16537 whole entry): as the sequence (Q16537 whole entry) above

| Compound | overall survival [1] | activity against T-ALL (GFP signal) ([2]; 5 μM, five days) | swimming behaviour / movement disorder ([3]; 5 μM) | PP2A subunits whose knockout gives resistance ([4]; 5 μM) | thermal stabilization of PP2A subunits [5] | phosphorylation of MYBL2 ([6]; 10 μM) | cell cycle status ([7]; 10 μM and 20 μM) | mitotic and microtubule phenotype ([8]; 10 μM and 20 μM) | phosphatase activity of PP2A assembled from purified PPP2R1A, PPP2CA and PPP2R5E ([9]; one hour at room temperature) | protection of α or β tubulins from thermal degradation [10] | reduction of the GFP signal more than PPZ ([2]; 2 μM iPAP1 vs 5 μM PPZ, five days) | GFP-positive leukemic area ([2]; serial dosage) | swimming behaviour / movement disorder ([3]; 2 μM) | PP2A subunits whose knockout gives resistance ([4]; 0.5 μM) | phosphorylation of MYBL2 ([6]; 1 μM) | cell cycle status ([7]; 1 μM and 2 μM) | mitotic and microtubule phenotype ([8]; 2 μM and 5 μM) | PP2A activated at lower molar concentrations than PPZ ([9]; purified subunits) [fold] | equivalent PP2A activation activity at lower concentrations compared to PPZ ([9]; purified subunits 200 ng each, one hour at room temperature) [times] |
| --- | --- | --- | --- | --- | --- | --- | --- | --- | --- | --- | --- | --- | --- | --- | --- | --- | --- | --- | --- |
| OCCN1CCN(CCCN2c3ccccc3Sc3ccc(Cl)cc32)CC1 [PPZ, perphenazine, reference compound] | did not show any survival advantage over the control | some activity against T-ALL with reduced GFP signal | exhibited movement disorders and swam upside down or on their sides | resistance to PPZ treatment only when the specific subunits PPP2R1A, PPP2CA or PPP2R5E were knocked out | significantly enhanced stabilization of PPP2R1A, PPP2CA and PPP2R5E | completely dephosphorylated at Ser241 | induced significant G2/M phase arrest | prometaphase arrest at the monopolarity stage | Phosphatase activity increased with increasing concentrations of PPZ | did not protect α or β tubulins from thermal degradation |  |  |  |  |  |  |  |  |  |
| COc1ccc(C(=O)N2c3ccccc3Sc3ccc(Cl)cc32)cc1 [iPAP1] | significantly extended the overall survival period |  |  |  | protection of the PP2A subunits from thermal degradation similar to PPZ |  |  |  | the phosphatase activity of PP2A was increased upon iPAP1 treatment | did not protect α or β tubulins from thermal degradation | at least 5 fold | dose dependent increased T-ALL cell killing | swam upright | resistance to iPAP1 treatment only when the PPP2R1A, PPP2CA or PPP2R5E subunits were disrupted | completely dephosphorylated at Ser241 | induced significant G2/M phase arrest | prometaphase arrest at the monopolarity stage | ~10 | ~10 |
